Measurements published in paper PMC6515058 (International Journal of Molecular Sciences, 2019).
Like-named read-outs stand apart in the source and are kept apart here. Values belong to the compound of their own block, whether it stands above or below them.

Key:
[1] = tested on: chicken P-gp; assay: Bidirectional transport of veterinary drugs across MDCK-chAbcb1 cell monolayer with berberine; settings: for efflux ratio at 20 μM: chicken
Experimental: (§1) The MDCK-chAbcb1 cell line stably expressing chicken P-gp was previously established in our laboratory. Briefly, the full-length chicken cDNA was first cloned into the pcDNA3.1 vector and then transfected into MDCK cells using Lipofectamine 2000. Single cells stably expressing chicken P-gp were collected using the limited dilution method in medium containing hygromycin B (100 μg/mL) to obtain the MDCK-chAbcb1 cell line. The cell line was cultured in Dulbecco’s modified Eagle’s medium containing 10% fetal bovine serum, antibiotics (100 IU/mL penicillin and 80 IU/mL streptomycin), and 50 μg/mL hygromycin B and incubated at 37 °C in humidified air with 5% CO2.
Then, the samples collected from the receiving sides were subjected to an HPLC analysis. Of note, the transport periods for all of the drugs were determined by a preliminary experiment to avoid the saturation of P-gp.
The apparent permeability coefficients (Papp) and the efflux ratio (ER) were calculated as follows:(3) Papp=dQ/dt×1/(A×Co) (4) ER=Papp(B→A)/Papp(A→B)
(§2) In the third equation, A is the membrane surface area of the filter, C0 is the initial concentration of the test drug, dQ is the amount of transported drug, and dt is the time elapsed. In the fourth equation, Papp B→A and Papp A→B are the apparent permeability coefficients for the basolateral-to-apical and apical-to-basolateral directions, respectively.

[2] = tested on: chicken P-gp; assay: Bidirectional transport of Rho123 across MDCK-chAbcb1 cell monolayer (P-gp inhibition); type: cell-based; settings: for Papp A→B at 80 min, 4 mM: read-out: Papp AP→BL of Rho123
Experimental: as §1
The samples were collected at 20, 40, 60, and 80 min from the receiving sides and analyzed by HPLC.
as §2
The inhibition rate was calculated using the following equation:(5) Inhibition rate=ERcontrol−ERtreatment/ERcontrol

[3] = tested on: Abcb1 mRNA; assay: Abcb1 mRNA expression in the ileum of broilers by real-time RT-PCR after oral berberine; type: in vivo; settings: berberine 40 and 80 mg/kg, 24 h, vs control, p < 0.01
Experimental: (§3) Arbor Acres broilers (one day old) were purchased from the Liuhe Hatchery (Nanjing, Jiangsu, China). The broilers were provided a basal diet and water ad libitum and managed under the recommended humidity and temperature for 6 weeks. Then, 18 healthy broilers with similar body weight (b.w.) were randomly divided into three groups (6 broilers/group). Group I was administered phosphate-buffered saline for 24 h (control).
GAPDH was used as an internal control.

[4] = tested on: chicken P-gp; assay: Bidirectional transport of berberine across MDCK-chAbcb1 cell monolayer; type: in vitro ADME; settings: for efflux ratio at 4 h, 100 μM: chicken
[5] = Bidirectional transport of berberine across MDCK parental cell monolayer; type: in vitro ADME; settings: dog
[6] = tested on: chicken intestinal P-gp; assay: In situ single-pass intestinal perfusion of Rho123 in berberine-treated broilers; type: in vivo
Experimental: as §3
The broilers were divided into three experimental groups and drugs were administered as described above. Broilers were fasted for 12 h with free access to water before the perfusion experiment. Then, the animals were anesthetized with urethane intraperitoneally (0.5 mL/kg b.w.) and an incision was made through the abdominal cavity. A 10-cm intestinal segment was carefully exposed to air for intestinal perfusion. Two polyethylene cannulas were inserted through small slits at the proximal and distal ends (inlet and outlet). Initially, the intestinal segment was gently flushed with Krebs-Ringer buffer for about 30 min until a clear effluent flowed out. Then, Rho123 (1.5 ng/mL) solution was introduced into the loop at a constant flow rate of 0.2 mL/min. The intestinal fluid was collected in bottles at the outlet of the intestine at intervals of 10 min for up to 100 min. The lengths and internal radii of the intestinal segments were measured after all of the chickens were killed by cervical dislocation.
All samples were weighed and centrifuged for 10 min at 4500 rpm. The supernatants were filtered using a 0.22-μm filter (Millipore, Burlington, MA, USA) and samples were collected for analysis by high-performance liquid chromatography (HPLC).

[7] = tested on: chicken xenobiotic receptor (CXR) mRNA; assay: CXR mRNA expression in the ileum of broilers by real-time RT-PCR after oral berberine; type: in vivo; settings: berberine 40 and 80 mg/kg, 24 h, vs control, p < 0.01
Experimental: Arbor Acres broilers (one day old) were purchased from the Liuhe Hatchery (Nanjing, Jiangsu, China). The broilers were provided a basal diet and water ad libitum and managed under the recommended humidity and temperature for 6 weeks. Then, 18 healthy broilers with similar body weight (b.w.) were randomly divided into three groups (6 broilers/group). Group I was administered phosphate-buffered saline for 24 h (control). […] Chicken treatment procedures were approved by the Science and Technology Agency of Jiangsu Province (approval no. 2017-0007, approval date: 15th, February, 2017) and performed in accordance with the guidelines of the Science and Technology Agency of Jiangsu Province and Nanjing Agricultural University. Broilers were divided into three experimental groups and drugs were administered as described above. At the end of experiments, animals were killed by decapitation. The ileum samples were collected immediately and stored at −80 °C for further tests. […] RNAs were quantified using a photometer (Eppendorf, Hamburg, Germany) at 260/280 nm. […] Chicken Abcb1 and chicken xenobiotic receptor (CXR) mRNAs were quantified using SYBR Green Realtime PCR Master Mix (Toyobo, Japan) on a real-time PCR detection system (Bio-Rad Laboratories, Hercules, CA, USA). […] Relative levels of Abcb1 and CXR were analyzed using the 2^−ΔΔCt method.

[8] = design: method as in data published in a Chinese journal, Figure S3; settings: broilers, berberine co-administration; ref data published in a Chinese journal, Figure S3; cited from earlier work
[9] = chicken, control of 8 h series, no berberine

efflux ratio at 20 μM [1]: 2.77
SMILES: Nc1ccc(S(=O)(=O)Nc2ncccn2)cc1 [sulfadiazine]

efflux ratio at 20 μM [1]: 4.26
SMILES: CC[C@H]1OC(=O)C[C@@H](O)[C@H](C)[C@@H](O[C@@H]2O[C@H](C)[C@@H](O)[C@H](N(C)C)[C@H]2O)[C@@H](CCN2C[C@H](C)C[C@H](C)C2)C[C@@H](C)C(=O)/C=C/C(C)=C/[C@@H]1CO[C@@H]1O[C@H](C)[C@@H](O)[C@@H](OC)[C@H]1OC [tilmicosin]

efflux ratio at 20 μM [1]: 2.01
SMILES: CCN1CCN(c2cc3c(cc2F)c(=O)c(C(=O)O)cn3C2CC2)CC1 [enrofloxacin]

Inhibition rate (of Rho123 efflux ratio) ([2]; berberine 5 μM, 2 h): 41.48%
Inhibition rate (of Rho123 efflux ratio) ([2]; berberine 5 μM, 8 h): 39.64%
Inhibition rate (of Rho123 efflux ratio) ([2]; berberine 20 μM, 2 h): 53.3%
Inhibition rate (of Rho123 efflux ratio) ([2]; berberine 20 μM, 2 h, listed as Berberine): 53.30%
Inhibition rate (of Rho123 efflux ratio) ([2]; berberine 20 μM, 8 h): 62.57%
Inhibition rate (of Rho123 efflux ratio) ([2]; berberine 40 μM, 2 h): 73.6%
Inhibition rate (of Rho123 efflux ratio) ([2]; berberine 40 μM, 2 h, listed as Berberine): 73.63%
Inhibition rate (of Rho123 efflux ratio) ([2]; berberine 40 μM, 8 h): 68.23%
Transport ratio (r) of berberine ([4]; MDCK-chAbcb1 cells, without verapamil, berberine 100 μM, 4 h): 4.2
efflux ratio at 4 h, 100 μM [4]: 4.2
efflux ratio at 4 h, 100 μM ([4]; with verapamil 100 μM): 1.13
efflux ratio at 4 h, 100 μM [5]: 1.24
efflux ratio at 4 h, 100 μM ([5]; with verapamil 100 μM): 1.21
ER of sulfadiazine ([1]; berberine 20 μM, 2 h pre-incubation, sulfadiazine 20 μM): did not obviously alter the ER
SMILES: COc1ccc2cc3[n+](cc2c1OC)CCc1cc2c(cc1-3)OCO2 [berberine]
Abcb1 mRNA level in the ileum [3]: significantly down-regulated
Rho123 concentrations in the perfusion fluid ([6]; berberine 40 and 80 mg/kg, 24 h, vs control, p < 0.05): obvious decrease
CXR mRNA level in the ileum [7]: significantly down-regulated
Bioavailability of orally administered enrofloxacin [8]: increases the bioavailability

efflux ratio at 2 h, 4 mM ([2]; chicken, control of 2 h series, no berberine, read-out: Efflux ratio of Rho123): 7.28 ± 0.98
Papp A→B at 80 min, 4 mM ([2]; chicken, control of 2 h series, no berberine): 8.86 ± 1.38 ×10⁻⁶ cm/s
Papp B→A at 2 h, 4 mM ([2]; chicken, control of 2 h series, no berberine, read-out: Papp BL→AP of Rho123): 62.9 ± 7.69 ×10⁻⁶ cm/s
efflux ratio at 8 h, 4 mM [2, 9]: 7.24 ± 0.49
Papp A→B at 80 min, 4 mM [2, 9]: 8.62 ± 1.24 ×10⁻⁶ cm/s
Papp B→A at 8 h, 4 mM ([2]; chicken, control of 8 h series, no berberine, read-out: Papp BL→AP of Rho123): 60.1 ± 5.13 ×10⁻⁶ cm/s
efflux ratio at 2 h, 4 mM ([2]; chicken, control of verapamil series, verapamil 0 µM, read-out: Efflux Ratio of rhodamine 123): 6.24 ± 0.7
Papp A→B at 2 h, 4 mM ([2]; chicken, control of verapamil series, verapamil 0 µM, read-out: Papp AP→BL of rhodamine 123): 8.04 ± 0.76 ×10⁻⁶ cm/s
Papp B→A at 2 h, 4 mM ([2]; chicken, control of verapamil series, verapamil 0 µM, read-out: Papp BL→AP of rhodamine 123): 54.4 ± 4.34 ×10⁻⁶ cm/s
Papp at 100 min, 1.5 ng/mL ([6]; Arbor Acres, chicken, other: in situ single-pass intestinal perfusion): 123 ± 42 ×10⁻⁶ cm/s
Ka of Rho123 ([6]; control (no berberine), in situ perfusion, n = 6): 1.12 ± 0.28 min⁻¹
SMILES: COC(=O)c1ccccc1-c1c2ccc(=N)cc-2oc2cc(N)ccc12 [Rho123, rhodamine 123]
